Reference: patent publication US8017755B2, “RNA-based transcriptional regulators” (President and Fellows of Harvard College, priority 2003, dated 2011)
pKd: −log10 of the molar value.

Experiments:
[1] = Gal4-VP16 fusions versus intact Gal4; cited from earlier work
HIS3 gene = experiment: Survival on media lacking histidine in strain L40-ura3, which lacks the LexA-MS2 fusion protein; format: cell-based, S. cerevisiae
Source text: To test whether the evolved RNAs require the MS2 protein-mediated localization to the LexA promoter, we introduced the plasmids expressing two representative active clones (m26-11 and m26-15) into the yeast strain L40-ura3 which lacks the LexA-MS2 fusion protein but is otherwise identical to YBZ-1 (Bernstein, D. S., Buter, N., Stumpf, C., and Wickens, M. (2002). Analyzing mRNA-protein complexes using a yeast three-hybrid system. Methods 26, 123-141).
Media consisted of yeast nitrogen base (Sigma), 4% dextrose, and synthetic drop out supplements lacking histidine or histidine and uracil (Clontech). Yeast were cultured either in liquid medium or on agar plates at 30° C. S. cerevisiae strains YBZ-1 (MATa, ura3-52, leu2-3, 112, his3-200, trp1-1, ade2, LYS2::(LexA op)-HIS3, ura3::(LexA op)-LacZ, LexA-MS2-MS2 coat (N55K)) and L40-ura3 (MATa, ura3-52, leu2-3112, his3Δ200, trp1Δ1, ade2, LYS2::(LexA op)-HIS3, ura3::(LexA op)-LacZ) were a gift from Professor Marvin Wickens (Bernstein, D. S., Buter, N., Stumpf, C., and Wickens, M. (2002). Analyzing mRNA-protein complexes using a yeast three-hybrid system. Methods 26, 123-141).

TMR-binding aptamer = settings: cited from earlier work
yeast = settings: cited from earlier work
S. cerevisiae cell wall = settings: cited from earlier work
S. cerevisiae = experiment: Growth of yeast cultures in varying TMR concentrations; settings: 10 μM TMR

VP16
transcriptional activation, fold more potent than Gal4 [1]: 100 fold

m26-15: evolved N40-26 variant SEQ ID NO: 28 CGCGGACCAAUGGU-CCCCCAAGUGGAUGCCUAAGCCUCUU (DNA CGCGGACCAAUGGUCCCCCAAGUGGAUGCCUAAGCCUCUU; listed as RNA, chemistry not given here)
survival on media lacking histidine without LexA-MS2 fusion protein (HIS3 gene): unable to survive

CN(C)c1ccc2c(-c3ccc(CCl)cc3)c3ccc(=[N+](C)C)cc-3oc2c1 [TMR, tetramethylrosamine]
pKd (TMR-binding aptamer): 7.40
concentration non-toxic to yeast (yeast): up to 1 μM
crossing of the S. cerevisiae cell wall (S. cerevisiae cell wall): cross the S. cerevisiae cell wall
growth inhibition of yeast (S. cerevisiae): Slight growth inhibition
